Test system: F1 Sprague-Dawley rats
Test: Pilot postnatal study, GD14-18 oral maternal dosing
Format: in vivo
Protocol: A single-dose level pilot study utilizing time-mated SD rats was conducted to examine the potential postnatal effects of in utero exposure to HFPO-DA from a similar dosing interval to the fetal studies (Figure 1B). The study consisted of dams exposed to oral daily dosing with either water vehicle or 125mg/kg HFPO-DA ( n=3 for each) from GD14–18. […] Dams gave birth naturally beginning on the morning of GD22 [i.e., postnatal day (PND) 0]. On PND2 all pups were sexed, weighed, and anogenital distance (AGD) was measured using a Leica MZ6 stereomicroscope (Leica Microsystems) fitted with an ocular micrometer. On PND13, the offspring were sexed, weighed, and evaluated for retention of female-like nipples/areolae. On PND27, the dams were euthanized, uterine implantation sites were scored, pups were weaned to two animals per cage by sex and treatment group, and food was changed to NTP2000 rodent diet. Beginning on PND31 for female offspring and PND41 for male offspring, individuals were evaluated daily for markers of pubertal onset, vaginal opening (VO) for females and balano-preputial separation (BPS) for males.
Beginning at PND128, adult F1 females were weighed, euthanized via decapitation, and examined via necropsy for any reproductive tract malformations and tissue weights were collected for uterus, paired ovaries, liver, paired kidneys, and visceral adipose tissue. Similarly, beginning at PND146 adult F1 males were weighed, euthanized, and examined for reproductive tract malformations and weights were collected for all relevant reproductive tissues. Male necropsy included weights of glans penis, ventral prostate, paired seminal vesicles, paired testes, paired epididymides, levator ani–bulbocavernosus (LABC), paired bulbourethral (Cowper’s) glands, paired kidneys, visceral adipose tissue, and epididymal adipose tissue. […] Total sperm counts in epididymal sections were measured using a Multisizer 3 Coulter counter (Beckman Coulter).

[1] = adult F1 female, 125 mg/kg/d, individual means
[2] = adult F1 female, 125 mg/kg/d, litter means
[3] = adult F1 male, 125 mg/kg/d, individual means
[4] = adult F1 male, 125 mg/kg/d, litter means

## O=C(O)C(F)(OC(F)(F)C(F)(F)C(F)(F)F)C(F)(F)F (stereo not shown) [HFPO-DA, Hexafluoropropylene oxide dimer acid]
125 mg/kg
  viable pups per litter versus control dams: equal numbers of viable pups
125 mg/kg GD14-18
  pup survival: no effect on pup survival
125 mg/kg/d, individual means
  Female AGD on PND2: 1.5 ± 0.0 mm
  Female BW at VO: 123.4 ± 2.3 g
  Female BW on PND27: 79.1 ± 1.4 g
  Female NR on PND13: 12.0 ± 0.0
  Female pup BW on PND2: 7.5 ± 0.1 g
  Female pup BW on PND13: 28.7 ± 0.3 g
  Male AGD on PND2: 3.7 ± 0.1 mm
  Male BW at PPS: 211.4 ± 3.7 g
  Male BW on PND27: 81.1 ± 1.6 g
  Male NR on PND2: 0.1 ± 0.1
  Male pup BW on PND2: 7.8 ± 0.1 g
  Male pup BW on PND13: 29.3 ± 0.3 g
125 mg/kg/d, litter means
  Dam BW GD14: 325.5 ± 5.2 g
  Dam BW GD18: 354.9 ± 9.0 g
  Dam BW gain: 29.4 ± 6.0 g
  Female AGD on PND2: 1.5 ± 0.1 mm
  Female BW at VO: 124.3 ± 4.2 g
  Female BW on PND27: 78.2 ± 3.5 g
  Female NR on PND13: 12.0 ± 0.0
  Female pup BW on PND2: 7.5 ± 0.1 g
  Female pup BW on PND13: 28.7 ± 0.1 g
  Male AGD on PND2: 3.7 ± 0.1 mm
  Male BW at PPS: 214.6 ± 8.0 g
  Male BW on PND27: 83.3 ± 4.7 g
  Male NR on PND2: 0.1 ± 0.1
  Male pup BW on PND2: 7.8 ± 0.1 g
  Male pup BW on PND13: 29.5 ± 0.5 g
  No. implants: 13.0 ± 1.0
  No. pups on PND2: 12.7 ± 0.7
  Post-implantation loss on PND2: 2.2 ± 2.2%
125 mg/kg, individual basis
  adult female AGD and liver weight: significantly smaller AGD and lower liver weight
  weights of right, left, paired testes, right, left, paired epididymides, epididymal adipose tissue: significantly lower tissue weights
125 mg/kg, individual pup basis
  female offspring body weight (PND2, PND27, at VO): significantly lower than controls
125 mg/kg, litter means basis
  adult female necropsy end points: no significant differences
  end points measured through the onset of puberty: no significant differences
  right epididymis tissue weight, adult males: significantly lower
[1]
  AGD: 16.7 ± 0.7 mm
  Body weight: 370.3 ± 12.3 g
  Liver: 11.3 ± 0.3 g
  Paired kidneys: 2.1 ± 0.1 g
  Paired ovaries: 123.2 ± 3.6 mg
  Uterus: 635.6 ± 48.9 mg
  Visceral adipose tissue: 25.2 ± 2.4 g
[2]
  AGD: 16.8 ± 0.5 mm
  Body weight: 374.0 ± 25.0 g
  Liver: 11.4 ± 0.5 g
  Paired kidneys: 2.1 ± 0.1 g
  Paired ovaries: 122.5 ± 8.6 mg
  Uterus: 635.4 ± 74.3 mg
  Visceral adipose tissue: 25.1 ± 4.6 g
[3]
  Body weight: 676.5 ± 10.6 g
  Cauda sperm: 159.7 ± 4.7 106
  Corpus/caput sperm: 72.6 ± 2.3 106
  Epididymal adipose tissue: 7.8 ± 0.5 g
  Glans penis: 134.5 ± 3.0 mg
  LABC: 1.6 ± 0.0 g
  Left epididymis: 668.1 ± 10.4 mg
  Left testis: 1.9 ± 0.0 g
  Liver: 20.1 ± 0.4 g
  Paired Cowper’s glands: 163.4 ± 5.2 mg
  Paired epididymides: 1331.2 ± 21.2 mg
  Paired kidneys: 3.4 ± 0.1 g
  Paired seminal vesicles: 1.8 ± 0.1 g
  Paired testes: 3.8 ± 0.1 g
  Right cauda: 310.5 ± 6.2 mg
  Right corpus/caput: 352.6 ± 7.1 mg
  Right epididymis: 663.1 ± 11.2 mg
  Right testis: 1.9 ± 0.0 g
  Total epididymal sperm: 185.8 ± 4.7 106
  Ventral prostate: 682.1 ± 32.7 mg
  Visceral adipose tissue: 25.8 ± 1.5 g
[4]
  Body weight: 682.6 ± 13.4 g
  Cauda sperm: 160.0 ± 3.4 106
  Corpus/caput sperm: 72.0 ± 2.8 106
  Epididymal adipose tissue: 8.2 ± 1.0 g
  Glans penis: 135.0 ± 1.5 mg
  LABC: 1.5 ± 0.1 g
  Left epididymis: 664.2 ± 12.5 mg
  Left testis: 1.9 ± 0.0 g
  Liver: 20.2 ± 0.4 g
  Paired Cowper’s glands: 165.6 ± 9.7 mg
  Paired epididymides: 1323.7 ± 24.3 mg
  Paired kidneys: 3.4 ± 0.0 g
  Paired seminal vesicles: 1.8 ± 0.1 g
  Paired testes: 3.8 ± 0.1 g
  Right cauda: 309.0 ± 6.0 mg
  Right corpus/caput: 350.5 ± 5.9 mg
  Right epididymis: 659.5 ± 11.8 mg
  Right testis: 1.9 ± 0.0 g
  Total epididymal sperm: 185.6 ± 2.0 106
  Ventral prostate: 678.7 ± 30.1 mg
  Visceral adipose tissue: 26.8 ± 2.4 g

Source: publication PMC6768323, “Adverse Maternal, Fetal, and Postnatal Effects of Hexafluoropropylene Oxide Dimer Acid (GenX) from Oral Gestational Exposure in Sprague-Dawley Rats” (Environmental Health Perspectives, 2019)
